According to article PMC11537005, “Antimicrobial activity of novel symmetrical antimicrobial peptides centered on a hydrophilic motif against resistant clinical isolates: in vitro and in vivo analyses” (Microbiology Spectrum, 2024):
Converted amounts (≈) assume the structure as drawn. Residues, ends and D or L forms follow the SMILES beside them.

Experiments:
MRSA 103 [1] = assay: microbe, parasite or virus in culture; type: cell-based, Staphylococcus aureus
Source text: (§1) The test strains (Gram-negative: E. coli ATCC 25922, E. coli k88, E. coli k99, E. coli 987, P. aeruginosa ATCC PAO1, Salmonella pullorum ATCC 7731, S. pullorum ATCC 7913, and S. typhimurium ATCC 14028; Gram-positive: S. aureus ATCC 29213, S. aureus ATCC 25923, S. epidermidis ATCC 12228, MRSA ATCC 43300, MRSA 544, MRSA 103, L. rhamnosus ATCC 8014, and L. rhamnosus 1.9021) were maintained at the School of Medicine in the Shenzhen Campus of Sun Yat-sen University. Mouse RBCs were extracted from a specific pathogen-free (SPF) grade mouse.
(§2) The peptides' antimicrobial effectiveness was evaluated using a method derived from a previous publication ([59]) and modified for use in this study. Single colonies were seeded and cultured in brain–heart infusion (BHI) medium at 37°C until log-phase growth after adjustment to OD600 = 0.4, which was followed by a 1000-fold dilution with phosphate-buffered saline (PBS). Then, in sterile 96-well plates, twofold serial dilutions of the peptides were added, followed by 50-µL aliquots of the bacterial cell solution. The ultimate concentrations of the antibacterial agents were 0.125–64 μM. Moreover, bacteria and PBS were added to the TSB as positive and negative controls, respectively. The plates were placed in an incubator set at 37°C for 18 hours. The trial was conducted a minimum of three times in sets of three. Successful completion of the experiment was confirmed by observing the turbidity of the positive control and clarity of the negative control culture medium. The MIC was defined as the lowest peptide concentration required to inhibit bacterial growth.

MRSA 544 [2] = assay: microbe, parasite or virus in culture; type: cell-based, Staphylococcus aureus
Source text: as §1, §2

MRSA 103 [3] = assay: microbe, parasite or virus in culture; type: cell-based, Staphylococcus aureus; remark: listed apart in the source
Description: as §2
(§3) For MBC analysis, viable cells from all wells with no visible bacterial growth were determined on the BHI agar plates. After 24 hours of cultivation at 37°C, the MBC endpoint was defined as the minimum concentration at which 99.9% of the bacterial population was killed.

MRSA 544 [4] = assay: microbe, parasite or virus in culture; type: cell-based, Staphylococcus aureus; remark: listed apart in the source
Description: as §2, §3

clinically isolated MRSA [5] = assay: microbe, parasite or virus in culture
Source text: as §1
as §2, with “Successful completion of the experiment was confirmed by observing the turbidity of the positive control and clarity of the negative control culture medium.” left out

MRSA 544 [6] = assay: Time-kill kinetics; type: cell-based, Staphylococcus aureus; conditions: 2 × MIC, 4 × MIC and 8 × MIC, 0–7 hours
Description: MRSA 544 was cultured to the logarithmic phase (OD600 = 0.4) and diluted 1000-fold with PBS. […] At various periods (0, 5, 10, 15, 20, 25, 30, and 60 minutes), microbial suspensions were serially diluted (10-, 100-, and 1000-fold) with PBS, and 10 µL of the diluted suspension was plated on tryptic soy agar (TSA) medium. Single colonies of microorganisms were counted after 12-hour incubation at 37°C. The processing steps of vancomycin were the same as those of AMP W5, but with different concentrations (2 × MIC, 4 × MIC, and 8 × MIC) and periods (0, 1, 2, 3, 4, 5, 6, and 7 hours). Average values were calculated and plotted after six repetitions.

clinically isolated MRSA [7] = type: cell-based, Staphylococcus aureus; conditions: 18 h
Description: as §2, §3

standard MRSA strains = type: cell-based, Staphylococcus aureus; conditions: 18 h
Source text: as §1
as §2, with “Successful completion of the experiment was confirmed by observing the turbidity of the positive control and clarity of the negative control culture medium. The MIC was defined as the lowest peptide concentration required to inhibit bacterial growth.” left out

BALB/c mice = assay: In vivo safety assessment; parameters: species or system mouse; conditions: 10 mg/kg intravenously, five days after injection
Description: The in vivo safety assessment and antibacterial activity analysis of the peptides were performed using a murine skin infection model wherein 25 SPF-grade 6- to 8-week-old female mice (BALB/c) were randomly divided into five cages (n = 5 in each cage). The animals were housed individually in ventilated cages (IVC), at a temperature of 20°C–24°C, humidity of 50%–60%, and a 12-hour day–night cycle.
Two groups of five mice were randomly divided and intravenously injected with 100 µL PBS or a 10 mg/kg solution of AMP W5 diluted with PBS. Five days after injection, all animals were euthanized. The weight of each mouse was determined from day 0 to day 5. Blood samples were collected to analyze hepatorenal damage, and an automatic biochemical analyzer was used to measure indicators, including ALT, AST, ALP, BUN, CREA, and LDH. The livers and kidneys of the mice were stained with hematoxylin/eosin (HE) for histological analysis.

[8] = clinically isolated MRSA strains, 37°C, 18 hours
[9] = Staphylococcus aureus, MRSA, 18 h
[10] = Staphylococcus aureus, MRSA, 24 h

| SMILES | MIC (MRSA 103 [1]; 103, 18 h) | MIC (MRSA 544 [2]; 544, 18 h) | MBC (MRSA 103 [3]; 103, 24 h) | MBC (MRSA 544 [4]; 544, 24 h) | other results |
| --- | --- | --- | --- | --- | --- |
| CC[C@H](C)[C@H](NC(=O)CN)C(=O)NCC(=O)N[C@@H](C)C(=O)N[C@H](C(=O)N[C@@H](CC(C)C)C(=O)N[C@@H](CCCCN)C(=O)N[C@H](C(=O)N[C@@H](CC(C)C)C(=O)N[C@H](C(=O)N[C@H](C(=O)NCC(=O)N[C@@H](CC(C)C)C(=O)N1CCC[C@H]1C(=O)N[C@@H](C)C(=O)N[C@@H](CC(C)C)C(=O)N[C@H](C(=O)N[C@@H](CO)C(=O)N[C@@H](Cc1c[nH]c2ccccc12)C(=O)N[C@H](C(=O)N[C@@H](CCCCN)C(=O)N[C@@H](CCCNC(=N)N)C(=O)N[C@@H](CCCCN)C(=O)N[C@@H](CCCNC(=N)N)C(=O)N[C@@H](CCC(N)=O)C(=O)N[C@@H](CCC(N)=O)C(N)=O)[C@@H](C)CC)[C@@H](C)CC)[C@@H](C)O)[C@@H](C)O)C(C)C)C(C)C [Melittin, reference compound] | – | – | – | – | MIC (MRSA 103 [1]; MRSA 103, twofold serial dilutions 0.125–64 μM, 96-well plates, 37°C, 18 hours, minimum of three times in sets of three): 4 µM (≈ 11.4 µg/mL); MIC (MRSA 544 [2]; MRSA 544, twofold serial dilutions 0.125–64 μM, 96-well plates, 37°C, 18 hours, minimum of three times in sets of three): 4 µM (≈ 11.4 µg/mL); MBC as multiple of MIC (MRSA 103 [3]; MRSA 103): 2 × MIC; MBC (MRSA 103 [3]; MRSA 103, BHI agar plates, 24 hours at 37°C, minimum concentration at which 99.9% killed): 8 µM (≈ 22.8 µg/mL); MBC (MRSA 544 [4]; MRSA 544, BHI agar plates, 24 hours at 37°C, minimum concentration at which 99.9% killed): 4 µM (≈ 11.4 µg/mL); MIC (clinically isolated MRSA [5]; [8]): 4 µM (≈ 11.4 µg/mL) |
| CN[C@H](CC(C)C)C(=O)N[C@H]1C(=O)N[C@@H](CC(N)=O)C(=O)N[C@H]2C(=O)N[C@H]3C(=O)N[C@H](C(=O)N[C@H](C(=O)O)c4cc(O)cc(O)c4-c4cc3ccc4O)[C@H](O)c3ccc(c(Cl)c3)Oc3cc2cc(c3O[C@@H]2O[C@H](CO)[C@@H](O)[C@H](O)[C@H]2O[C@H]2C[C@](C)(N)[C@H](O)[C@H](C)O2)Oc2ccc(cc2Cl)[C@H]1O [Vancomycin, reference compound] | – | – | – | – | MIC (MRSA 103 [1]; [9]): 0.5 µM (≈ 0.725 µg/mL); MIC (MRSA 544 [2]; [9]): 0.5 µM (≈ 0.725 µg/mL); MBC as multiple of MIC (MRSA 103 [3]; MRSA 103): 8 × MIC; MBC (MRSA 103 [3]; [10]): 4 µM (≈ 5.8 µg/mL); MBC as multiple of MIC (MRSA 544 [4]; MRSA 544): 8 × MIC; MBC (MRSA 544 [4]; [10]): 4 µM (≈ 5.8 µg/mL); MIC (clinically isolated MRSA [5]; [9]): 0.5 µM (≈ 0.725 µg/mL); Bactericidal effect in time-kill assay (MRSA 544 [6]): no signs of complete eradication even after 7 hours |
| N=C(N)NCCC[C@H](NC(=O)CNC(=O)[C@H](CO)NC(=O)CNC(=O)[C@H](CCCNC(=N)N)NC(=O)[C@@H](N)Cc1c[nH]c2ccccc12)C(=O)N[C@@H](Cc1c[nH]c2ccccc12)C(N)=O [W1] (H-WRGSGRW-NH2) | > 64 µM | > 64 µM | > 64 µM | > 64 µM | – |
| N=C(N)NCCC[C@H](NC(=O)CNC(=O)[C@H](CO)NC(=O)CNC(=O)[C@H](CCCNC(=N)N)NC(=O)[C@H](CCCNC(=N)N)NC(=O)[C@@H](N)Cc1c[nH]c2ccccc12)C(=O)N[C@@H](CCCNC(=N)N)C(=O)N[C@@H](Cc1c[nH]c2ccccc12)C(N)=O [W2] (H-WRRGSGRRW-NH2) | > 64 µM | > 64 µM | > 64 µM | > 64 µM | – |
| N=C(N)NCCC[C@H](NC(=O)CNC(=O)[C@H](CO)NC(=O)CNC(=O)[C@H](CCCNC(=N)N)NC(=O)[C@H](CCCNC(=N)N)NC(=O)[C@H](CCCNC(=N)N)NC(=O)[C@@H](N)Cc1c[nH]c2ccccc12)C(=O)N[C@@H](CCCNC(=N)N)C(=O)N[C@@H](CCCNC(=N)N)C(=O)N[C@@H](Cc1c[nH]c2ccccc12)C(N)=O [W3] (H-WRRRGSGRRRW-NH2) | > 64 µM | > 64 µM | > 64 µM | > 64 µM | – |
| N=C(N)NCCC[C@H](NC(=O)CNC(=O)[C@H](CO)NC(=O)CNC(=O)[C@H](CCCNC(=N)N)NC(=O)[C@H](CCCNC(=N)N)NC(=O)[C@H](CCCNC(=N)N)NC(=O)[C@H](Cc1c[nH]c2ccccc12)NC(=O)[C@@H](N)Cc1c[nH]c2ccccc12)C(=O)N[C@@H](CCCNC(=N)N)C(=O)N[C@@H](CCCNC(=N)N)C(=O)N[C@@H](Cc1c[nH]c2ccccc12)C(=O)N[C@@H](Cc1c[nH]c2ccccc12)C(N)=O [W4] (H-WWRRRGSGRRRWW-NH2) | 16 µM (≈ 30.4 µg/mL) | 16 µM (≈ 30.4 µg/mL) | 32 µM (≈ 60.8 µg/mL) | 32 µM (≈ 60.8 µg/mL) | – |
| N=C(N)NCCC[C@H](NC(=O)CNC(=O)[C@H](CO)NC(=O)CNC(=O)[C@H](CCCNC(=N)N)NC(=O)[C@H](CCCNC(=N)N)NC(=O)[C@H](CCCNC(=N)N)NC(=O)[C@H](Cc1c[nH]c2ccccc12)NC(=O)[C@H](Cc1c[nH]c2ccccc12)NC(=O)[C@@H](N)Cc1c[nH]c2ccccc12)C(=O)N[C@@H](CCCNC(=N)N)C(=O)N[C@@H](CCCNC(=N)N)C(=O)N[C@@H](Cc1c[nH]c2ccccc12)C(=O)N[C@@H](Cc1c[nH]c2ccccc12)C(=O)N[C@@H](Cc1c[nH]c2ccccc12)C(N)=O [W5] (H-WWWRRRGSGRRRWWW-NH2) | 8 µM (≈ 18.2 µg/mL) | 8 µM (≈ 18.2 µg/mL) | 8 µM (≈ 18.2 µg/mL) | 8 µM (≈ 18.2 µg/mL) | MIC (clinically isolated MRSA [5]; [8]): 8 µM (≈ 18.2 µg/mL); MBC (clinically isolated MRSA [7]): 8 µM (≈ 18.2 µg/mL); MIC (standard MRSA strains): 2 µM (≈ 4.55 µg/mL); HE staining of liver and kidney (BALB/c mice): no hepatotoxicity or nephrotoxicity |
